Measured values as given in patent US4267187A, “Aminopropanol derivatives of 2-(0-hydroxyphenyl)-pyrrole” (BASF Aktiengesellschaft, priority 1978, dated 1981).
Counter-ions that a name gives are not always drawn.

Key:
[1] = tested on: isoproterenol-induced tachycardia; assay: β1-sympatholytic action: inhibition of isoproterenol-induced tachycardia in pithed rats; assay type: in vivo, pithed rats (Sprague-Dawley, Rattus norvegicus); settings: for β1-sympatholytic action, R.A. (relative activity): Propranolol = 1.00, from ED 50%, intravenous; for β1-sympatholytic activity, times greater than that of propranolol: versus propranolol
Procedure: The β-sympatholytic action was tested on rats, in comparison with the known β-sympatholytic agent propanolol (1-(isopropylamino)-1-naphthyloxy-2-propanol.HCl). The following methods were used for this purpose:
1. β1 -sympatholytic action
^1 Inhibition of isoproterenolinduced tachycardia in pithed rats.
Intravenous administration
^2 Dose which inhibits the isoproterenolinduced tachycardia by 50%

[2] = for Therapeutic range, relative: in vivo; for Therapeutic range (LD 50/ED 50%), times greater than that of propranolol: versus propranolol
[3] = tested on: NMRI mice; assay: Acute toxicity in mice, intraperitoneal; settings: deaths within 24 hours, Probit analysis
Procedure: The acute toxicity was determined on groups of 10 female NMRI mice, weight 19-27 g, with intraperitoneal administration.
Intraperitoneal administration

Row | SMILES | β1-sympatholytic action, R.A. (relative activity) ([1]; pithed rats) | β1-sympatholytic activity, times greater than that of propranolol [1] [times] | Therapeutic range, relative [2] | Therapeutic range (LD 50/ED 50%), times greater than that of propranolol [2] [times] | Acute toxicity LD 50 [3] | ED50 ([1]; Rattus norvegicus, iv, 5 min, read-out: β1-sympatholytic action, ED 50% (dose which inhibits the isoproterenol-induced tachycardia by 50%)) [mg/kg] | increase in pulse rate, on average ([1]; isoproterenol 0.1 μg/kg intravenously, pithed rats) [%]
1 | CC(C)NCC(O)COc1ccccc1-c1ccc[nH]1 (stereo not drawn) [Example 2, 2-[2-(3-isopropylamino-2-hydroxypropoxy)-phenyl]-pyrrole fumarate hemihydrate] | 3.18 | 3.2 | 4.07 | 4 |  |  | 
2 | CC(C)(C)NCC(O)COc1ccccc1-c1ccc[nH]1 (stereo not drawn) [Example 1, 2-[2-(3-tert.-butylamino-2-hydroxypropoxy)-phenyl]-pyrrole fumarate] | 5.59 | 5.6 | 6.91 | 7 | 165 |  | 
3 | CC(C)NCC(O)COc1cccc2ccccc12 (racemic) [Propranolol, 1-(isopropylamino)-1-naphthyloxy-2-propanol.HCl, reference compound] | 1.00 |  |  |  |  | 0.0127 | 
4 | CC(C)NCC(O)c1ccc(O)c(O)c1 (stereo not drawn) [Isoproterenol, reference compound] |  |  |  |  |  |  | 45
